The values below come from patent US20150065499A1, “3-AMINOTHIENO[3,2-c]QUINOLINE DERIVATIVES, METHODS OF PREPARATION AND USES” (TEMPLE UNIVERSITY - OF THE COMMONWEALTH SYSTEM OF HIGHER …, priority 2012, published 2015).

Counter-ions that a name gives are not always drawn.

A word on the IC50: it is the point on the concentration scale where inhibition reaches its midpoint. The low end stands for greater potency, the high end for weaker potency. For orientation: melting point means the temperature of the solid-liquid transition.

Series [1] concerns K562 (chronic myelogenous leukemia; leukemia cell line +ve for Bcr-Abl). Kind of series: Cancer cell assay, K562 tumor cells, viable cells after 96 hours. The class given is cell-based. Particulars: 96 hours after treatment, called IC50. The method, then: (§1) The effect of the compounds of the invention on tumor cells was determined by the assay described by Latham et al., Oncogene 12:827-837 (1996). Tumor cells K562 (chronic myelogenous leukemia; leukemia cell line +ve for Bcr-Abl) or DU145 (prostate cancer) were plated in 12-well dishes at a cell density of 2.5×10^4 cells well. The plated cells were treated 24 hours later with a compound of the invention dissolved in DMSO at multiple concentrations ranging from 0.01 μM to 100 μM. The plates were examined 96 hours later under an inverted microscope, Olympus CK-2 using a 10× objective, and compound activity was noted by physical observation. When necessary, the total number of viable cells was determined by trypsinizing the wells and counting the number of viable cells, as determined by trypan blue exclusion, using a hemacytometer.

Series [2] has as its system DU145 (prostate cancer). Kind of series: Cancer cell assay, DU145 tumor cells, viable cells after 96 hours. The class given is cell-based. Particulars: Homo sapiens, DU-145, 96 hours after treatment, called IC50. The method, then:
as §1

`COC(=O)c1sc2c(cnc3cc(OC(=O)N4CCN(C)CC4)c(OC)cc32)c1N` [Example 13, Methyl 3-amino-8-methoxy-7-[(4-methylpiperazine-1-carbonyl)oxy]thieno[3,2-c]quinoline-2-carboxylate] yielded a melting point of 147 to 150 °C. In addition, the IC50 in series [1] (Homo sapiens) was in the range of 10 to 25 µM. In series [2], this molecule registered an IC50 of 10 to 25 µM.

In turn, `N#Cc1sc2c(cnc3cc(F)c(F)cc32)c1N` [Example 38, 3-Amino-7,8-difluorothieno[3,2-c]quinoline-2-carbonitrile] displayed a melting point of 300 to 301 °C. In addition, the IC50 in series [1] (Homo sapiens) worked out at 25 µM. For the same molecule, the midpoint of inhibition in series [2], the IC50, lay at 25 µM.

`COc1cc2ncc3c(N)c(C(C)=O)sc3c2cc1OC` [Example 6, 1-(3-Amino-7,8-dimethoxythieno[3,2-c]quinolin-2-yl)ethanone] displayed a melting point of 260 to 263 °C. This molecule also registered an IC50 in series [1] (Homo sapiens) of 0.5 to 1 µM. Besides, the IC50 in series [2] fell in the range of 1 to 10 µM.

`COC(=O)c1sc2c(cnc3cc(OCCCN4CCCCC4)c(OC)cc32)c1N` [Example 12, Methyl 3-amino-8-methoxy-7-[3-(piperidin-1-yl)propoxy]thieno[3,2-c]quinoline-2-carboxylate] had a melting point of 127 to 130 °C. Also, in series [1] (Homo sapiens), the IC50 is 1 to 5 µM. The same molecule displayed an IC50 in series [2] of 1 to 5 µM.

In turn, `CCOC(=O)c1sc2c(cnc3cc(OC)c(OC)cc32)c1N` [Example 2, Ethyl 3-amino-7,8-dimethoxythieno[3,2-c]quinolone-2-carboxylate] showed a melting point of 215 to 218 °C. In series [1] (Homo sapiens), this molecule registered an IC50 of 0.5 to 1 µM. In series [2], this molecule registered a concentration for half-maximal inhibition (IC50) of more than 1 µM.

Take `COC(=O)c1sc2c(cnc3cc(OC)c(OC)cc32)c1NC(=O)C(F)(F)F` [Example 23, Methyl 7,8-dimethoxy-3-(2,2,2-trifluoroacetamido)thieno[3,2-c]quinoline-2-carboxylate]: the melting point was in the range of 224 to 230 °C. This molecule also showed an IC50 in series [1] (Homo sapiens) of 0.2 µM. In series [2], the IC50 stood at 0.75 µM.

Consider `Nc1c(C(=O)c2ccc(F)cc2)sc2c1cnc1ccc(F)cc12` [Example 37, (3-Amino-8-fluorothieno[3,2-c]quinolin-2-yl)(4-fluorophenyl)methanone], for which the melting point lay in the range of 276 to 278 °C. This molecule also returned an IC50 in series [1] (Homo sapiens) of 0.15 µM. The IC50 in series [2] was 5 µM.

Molecule `COC(=O)c1sc2c(cnc3cc(OC)c(OC)cc32)c1N` [Example 1, Methyl 3-amino-7,8-dimethoxythieno[3,2-c]quinolone-2-carboxylate] returned a melting point of 260 to 262 °C. In series [1] (Homo sapiens), this molecule came in with an IC50 of 0.15 µM. Besides, in series [2], the IC50 amounted to 0.6 µM.

With `COC(=O)c1sc2c(c[n+](C)c3cc(OC)c(OC)cc23)c1N` [Example 30, 3-amino-7,8-dimethoxy-2-(methoxycarbonyl)-5-methylthieno[3,2-c]quinolin-5-ium iodide], the IC50 in series [1] (Homo sapiens) was 5 to 10 µM; in series [2], more than 10 µM.

As for `COC(=O)c1sc2c(cnc3cc(OC)c(OC)cc32)c1NC(=O)C(=O)Nc1ccc(N2CCN(C)CC2)cc1` [Example 28, Methyl 7,8-dimethoxy-3-(2-{[4-(4-methylpiperazin-1-yl)phenyl]amino}-2-oxoacetamido)thieno[3,2-c]quinoline-2-carboxylate], the melting point was 240 to 246 °C. Also, the IC50 in series [1] (Homo sapiens) was in the range of 1 to 10 µM. In series [2], this molecule had an IC50 of 10 to 25 µM.

As for `COc1ccc(C(=O)c2sc3c(cnc4cc(F)c(F)cc43)c2N)cc1` [Example 40, (3-Amino-7,8-difluorothieno[3,2-c]quinolin-2-yl)(4-methoxyphenyl)methanone], the melting point lay within 258 to 260 °C. Further, the IC50 in series [1] (Homo sapiens) is 75 µM. The IC50 in series [2] was determined as 75 µM.

Consider `COC(=O)c1sc2c(cnc3cc(OC)c(OC)cc32)c1NC(=O)c1ccccc1` [Example 19, Methyl 3-benzamido-7,8-dimethoxythieno[3,2-c]quinoline-2-carboxylate], for which the melting point is 205 to 208 °C. In addition, in series [1] (Homo sapiens), the IC50 fell in the range of 0.1 to 0.25 µM. The IC50 in series [2] lay within 0.25 to 0.5 µM.

For the molecule `COC(=O)c1sc2c(cnc3cc(OC)c(OC)cc32)c1NC(=O)c1ccc(OC)cc1` [Example 16, Methyl 7,8-dimethoxy-3-(4-methoxybenzamido)thieno[3,2-c]quinoline-2-carboxylate], the melting point was in the range of 255 to 258 °C. In addition, the IC50 in series [1] (Homo sapiens) was less than 1 µM. This molecule also came in with a concentration for half-maximal inhibition (IC50) in series [2] of less than 1 µM.

With `COC(=O)c1sc2c(cnc3ccc(F)cc32)c1N` [Example 34, Methyl 3-amino-8-fluorothieno[3,2-c]quinoline-2-carboxylate], the melting point was 270 to 272 °C. This molecule also came in with an IC50 in series [1] (Homo sapiens) of 10 µM. In series [2], this molecule displayed an IC50 of 10 µM.

In the case of `COc1cc2ncc3c(N)c(C(=O)c4ccc(F)cc4)sc3c2cc1OC` [Example 3, (3-Amino-7,8-dimethoxythieno[3,2-c]quinolin-2-yl)(4-fluorophenyl)methanone], the melting point fell in the range of 286 to 288 °C. Also, the IC50 in series [1] (Homo sapiens) was more than 10 µM. The molecule further yielded an IC50 in series [2] of more than 10 µM.

Molecule `COC(=O)c1sc2c(cnc3cc(OC)c(OC)cc32)c1NC(=O)c1ccc(Cl)c([N+](=O)[O-])c1` [Example 22, Methyl 3-(4-chloro-3-nitrobenzamido)-7,8-dimethoxythieno[3,2-c]quinoline-2-carboxylate] came in with a melting point of 260 to 262 °C. This molecule also came in with an IC50 in series [1] (Homo sapiens) of 0.1 to 0.5 µM. The molecule also had an IC50 in series [2] of 0.5 to 1 µM.

As to `COC(=O)c1sc2c(cnc3cc(OC)c(OC)cc32)c1NC(=O)c1ccccc1[N+](=O)[O-]` [Example 20, Methyl 7,8-dimethoxy-3-(2-nitrobenzamido)thieno[3,2-c]quinoline-2-carboxylate], the melting point was in the range of 178 to 181 °C. For the same molecule, in series [1] (Homo sapiens), 3 µM corresponded to half-maximal inhibition (IC50). This molecule also had an IC50 in series [2] of 25 µM.

The molecule `COC(=O)c1sc2c(cnc3cc(OC)c(OCc4ccccc4)cc32)c1N` [Example 7, Methyl 3-amino-8-benzyloxy-7-methoxythieno[3,2-c]quinoline-2-carboxylate] had a melting point of 272 to 274 °C. In series [1] (Homo sapiens), this molecule had an IC50 of more than 10 µM. Besides, the IC50 in series [2] was more than 10 µM.

For the molecule `Nc1c(C(=O)c2ccc(F)cc2)sc2c1cnc1cc(F)c(F)cc12` [Example 39, (3-Amino-7,8-difluorothieno[3,2-c]quinolin-2-yl)(4-fluorophenyl)methanone], the melting point is more than 320 °C. In series [1] (Homo sapiens), this molecule yielded an IC50 of 75 µM. The molecule further registered an IC50 in series [2] of 75 µM.

`COC(=O)c1sc2c(cnc3cc(OC)c(OC)cc32)c1NC(=O)C(=O)N1CCN(C)CC1` [Example 25, Methyl 7,8-dimethoxy-3-[2-(4-methylpiperazin-1-yl)-2-oxoacetamido]thieno[3,2-c]quinoline-2-carboxylate]: the IC50 in series [1] (Homo sapiens) and in series [2] was 1 to 10 µM each time.

The molecule “Methyl 7,8-dimethoxy-3-(2-aminobenzamido)thieno[3,2-e]quinoline-2-carboxylate [Example 21]” came in with an IC50 in series [1] of less than 1 µM.

In turn, `COc1ccc(C(=O)c2sc3c(cnc4ccc(F)cc43)c2N)cc1` [Example 41, (3-Amino-8-fluorothieno[3,2-c]quinolin-2-yl)(4-methoxyphenyl)methanone] yielded a melting point of 256 to 258 °C. This molecule showed an IC50 in series [1] (Homo sapiens) of 0.6 µM. The molecule also came in with an IC50 in series [2] of 10 µM.

For the molecule `COc1cc2ncc3c(N)c(C#N)sc3c2cc1OC` [Example 8, 3-Amino-7,8-dimethoxythieno[3,2-c]quinoline-2-carbonitrile], the melting point is 314 to 316 °C. The same molecule showed an IC50 in series [1] (Homo sapiens) of 1 to 10 µM. The IC50 in series [2] was in the range of 10 to 25 µM.

As for `COC(=O)c1sc2c(cnc3cc(OCc4ccccc4)c(OC)cc32)c1N` [Example 4, Methyl 3-amino-7-benzyloxy-8-methoxythieno[3,2-c]quinolone-2-carboxylate], the melting point fell in the range of 221 to 223 °C. Also, in series [1] (Homo sapiens), the IC50 is more than 10 µM. Moreover, in series [2], the IC50 is more than 10 µM.

Regarding `COC(=O)c1sc2c(cnc3cc(F)c(F)cc32)c1N` [Example 35, Methyl 3-amino-7,8-difluorothieno[3,2-c]quinoline-2-carboxylate], the melting point was 298 to 300 °C. Moreover, 10 µM corresponded to half-maximal inhibition in series [1] (Homo sapiens) (IC50). Also, inhibition in series [2] was half-maximal at 10 µM (IC50).

With `COC(=O)c1sc2c(c[n+](C)c3cc(OC)c(OC)cc23)c1N` (as salt: iodide) [Example 30, 3-amino-7,8-dimethoxy-2-(methoxycarbonyl)-5-methylthieno[3,2-c]quinolin-5-ium iodide], the melting point was in the range of 249 to 251 °C.

In turn, `COC(=O)c1sc2c(cnc3cc(O)c(OC)cc32)c1N` [Example 9, Methyl 3-amino-7-hydroxy-8-methoxythieno[3,2-c]quinoline-2-carboxylate] registered a melting point of 244 to 246 °C. In addition, the IC50 in series [1] (Homo sapiens) lay within 1 to 10 µM. This molecule returned an IC50 in series [2] of more than 10 µM.

Take `COC(=O)c1sc2c(cnc3cc(OC)c(OC)cc32)c1NC(=O)C(=O)N1CCOCC1` [Example 26, Methyl 7,8-dimethoxy-3-(2-morpholino-2-oxoacetamido)thieno[3,2-c]quinoline-2-carboxylate]: the melting point was 232 to 234 °C. In series [1] (Homo sapiens), this molecule came in with an IC50 of 50 to 100 µM. This molecule came in with an IC50 in series [2] of 25 to 50 µM.

For the molecule `COC(=O)C[n+]1cc2c(N)c(C(=O)OC)sc2c2cc(OC)c(OC)cc21` [Example 31, 3-amino-7,8-dimethoxy-5-(2-methoxy-2-oxoethyl)-2-(methoxycarbonyl)thieno[3,2-c]quinolin-5-ium bromide], the IC50 in series [1] (Homo sapiens) is 50 to 100 µM; in series [2] it was more than 100 µM.
